Laboratory results: patent publication US12492403B2, “Aptamers and the use thereof in the treatment of cancer” (FUNDACIÓN PARA LA INVESTIGACIÓN BIOMÉDICA DEL HOSPITAL …, priority 2018, dated 2025)

Columns and labels:
MNK1a = MNK1a (Homo sapiens, UniProt Q9BUB5); assay: ELONA binding of biotin-labeled aptamer
Experimental: (§1) FIGS. 5A-5C. Characterization of the interaction of aptamer apMNKQ2 with MNK1 by means of ELONA. (A) ELONAs in which GST-MNKs previously adsorbed in 96-well plates at 0.2 μg/well (3 pmol/well) with apMNKQ2-Bio at 20 nM were incubated (FIG. 5A). The bars represent the mean±SEM of at least 3 independent experiments (*p<0.05, **p<0.01, and ***p<0.001 with respect to the blank and c p<0.05, b p<0.01, and a p<0.001 MNK1b with respect to MNK1a). ELONAs in which concentrations of 0 to 500 nM of apMNKQ2 were incubated (FIGS. 5A and 5C).
(§2) To determine the binding of the aptamers to MNK1a or MNK1b, 200 ng of protein/well diluted in a coating solution (KPL, USA) in a final volume of 100 μL/well were added to a Maxisorp Nunc 96-well ELISA plate (ThermoFisher Scientific, USA). The plate was incubated overnight at 4° C. under stirring. Aptamers were then added at the corresponding concentration according to the assay, in a final volume of 100 μL/well of BSA-free aptamer buffer for 1 hour at 37° C. under stirring. All the aptamers used were labeled with biotin and had been previously denatured at 90° C. for 10 minutes and then kept at 4° C. for 10 minutes in the BSA-free aptamer buffer. To detect the binding of the aptamer to the protein, 100 μL/well of streptavidin-peroxidase (GE Healthcare, United Kingdom) diluted 1/1000 in the aptamer buffer at 37° C. for 1 hour under stirring were added. To develop the plate, 100 μL/well of ABTS solution (Roche, Switzerland) were added, and it was incubated in darkness at room temperature, with measurements being taken every 10 minutes at a wavelength of 405 nm in an Infinite F200 spectrophotometer (TECAN, Switzerland).

MNK1aΔ77 = MNK1aΔ77 (Homo sapiens, UniProt Q9BUB5); assay: ELONA binding of biotin-labeled aptamer; conditions: apMNKQ2-Bio at 20 nM, GST-MNK1aΔ77 0.2 μg/well
Experimental: as §1, §2

MNK1b = MNK1b (Homo sapiens, UniProt Q9BUB5); assay: ELONA binding of biotin-labeled aptamer
Experimental: as §1, §2

MNK1ΔCt = MNK1ΔCt (Homo sapiens, UniProt Q9BUB5); assay: ELONA binding of biotin-labeled aptamer; conditions: apMNKQ2-Bio at 20 nM, GST-MNK1ΔCt 0.2 μg/well
Experimental: as §1, §2

MDA-MB-231 cells = assay: Transwell invasion assay with Matrigel; type: cell-based, human; conditions: MDA-MB-231, 400 nM
Experimental: (§3) FIGS. 13A, 13B and 13C. Effect of aptamer apMNKQ2 on the migration and invasion of breast cell lines. The three lines of study were seeded in 6-well plates at a density of 2.5×10^5 cells/well and transfected at 24 hours with apMNKQ2 at the established working concentrations. The cell lines were deprived of serum after 6 hours and collected and re-seeded (4×10^4 cells/well) after 24 hours in a transwell […], in order to perform migration and invasion assays, respectively. At 24 hours, the membranes of the transwell are stained with Hoechst and cells that have gone through the membranes are quantified using fluorescence microscopy (FIG. 13A). The boxes (FIGS. 13B and 13C) represent the mean±the maximum and minimum of 4-5 independent experiments (*p<0.05, **p<0.01, and ***p<0.001 with respect to the control aptamer AT).
(§4) Cell migration and invasion assays were performed using transwell (Corning, USA). […] After that time, they were collected, counted, and reseeded 4×10^4 cells in 300 μl of a serum-free complete medium inside the transwell (migration) or a transwell on which a layer of 100 μL of Matrigel (Corning, USA) (invasion) had previously been polymerized. […] Finally, two washes in PBS were performed, and 5 photographs of each membrane of the transwell were taken using a fluorescence microscope (Olympus IX70). The number of cells was analyzed using the imageJ program. […]

MDA-MB-468 cells = assay: Transwell invasion assay with Matrigel; type: cell-based, human; conditions: MDA-MB-468, 50 nM
Experimental: as §3, §4

AKT = assay: Western blot of phosphorylation, combined therapy study; type: cell-based, human; conditions: MDA-MB-231 and MCF7 cells, 24 hours
Experimental: (§5) FIG. 22A & 22B. Combined therapy studies of apMNKQ2 and everolimus. […] The different antibodies used are indicated.
(§6) Seventy-two hours after treatment, MTT activity was measured.

eIF4E = assay: as above; type: cell-based, human; conditions: MDA-MB-231 and MCF7 cells, 24 hours
Experimental: as §5, §6

ribosomal protein S6 = assay: as above; type: cell-based, human; conditions: MDA-MB-231 and MCF7 cells, 24 hours
Experimental: as §5, §6

Chain of MNK1b (Q9BUB5 1-347 isoform Q9BUB5-3): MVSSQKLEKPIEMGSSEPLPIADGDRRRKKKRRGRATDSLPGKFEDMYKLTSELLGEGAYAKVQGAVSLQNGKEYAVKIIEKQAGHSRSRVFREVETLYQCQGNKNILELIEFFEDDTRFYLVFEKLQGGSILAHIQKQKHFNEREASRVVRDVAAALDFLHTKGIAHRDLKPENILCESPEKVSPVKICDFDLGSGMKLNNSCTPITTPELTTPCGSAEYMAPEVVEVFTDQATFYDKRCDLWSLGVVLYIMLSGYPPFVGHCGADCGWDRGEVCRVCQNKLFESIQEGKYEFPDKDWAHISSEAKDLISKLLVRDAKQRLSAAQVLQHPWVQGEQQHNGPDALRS
Chain of MNK1a (Q9BUB5 1-424 isoform Q9BUB5-2): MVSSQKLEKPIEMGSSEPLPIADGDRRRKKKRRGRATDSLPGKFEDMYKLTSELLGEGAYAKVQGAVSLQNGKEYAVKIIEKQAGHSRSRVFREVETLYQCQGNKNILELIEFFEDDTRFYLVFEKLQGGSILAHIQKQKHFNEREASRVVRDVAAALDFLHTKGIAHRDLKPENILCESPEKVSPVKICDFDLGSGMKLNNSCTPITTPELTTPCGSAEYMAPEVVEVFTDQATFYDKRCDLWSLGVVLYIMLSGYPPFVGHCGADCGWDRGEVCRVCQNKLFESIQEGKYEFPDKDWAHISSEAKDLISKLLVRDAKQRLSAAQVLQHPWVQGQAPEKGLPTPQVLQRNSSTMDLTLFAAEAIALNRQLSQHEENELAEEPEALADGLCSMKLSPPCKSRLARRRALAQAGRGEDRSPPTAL
Chain of MNK1aΔ77 (Q9BUB5 1-347 isoform Q9BUB5-2 limits assumed): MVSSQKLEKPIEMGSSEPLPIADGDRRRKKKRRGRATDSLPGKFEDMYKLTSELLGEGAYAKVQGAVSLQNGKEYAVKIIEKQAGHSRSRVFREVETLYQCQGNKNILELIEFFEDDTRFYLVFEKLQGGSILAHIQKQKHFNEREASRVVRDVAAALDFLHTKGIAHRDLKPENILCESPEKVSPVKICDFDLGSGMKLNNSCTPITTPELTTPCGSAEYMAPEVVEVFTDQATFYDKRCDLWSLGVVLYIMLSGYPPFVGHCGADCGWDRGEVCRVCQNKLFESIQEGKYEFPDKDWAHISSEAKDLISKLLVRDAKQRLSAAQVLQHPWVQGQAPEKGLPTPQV
Chain of MNK1ΔCt (Q9BUB5 1-335 isoform Q9BUB5-2 limits assumed): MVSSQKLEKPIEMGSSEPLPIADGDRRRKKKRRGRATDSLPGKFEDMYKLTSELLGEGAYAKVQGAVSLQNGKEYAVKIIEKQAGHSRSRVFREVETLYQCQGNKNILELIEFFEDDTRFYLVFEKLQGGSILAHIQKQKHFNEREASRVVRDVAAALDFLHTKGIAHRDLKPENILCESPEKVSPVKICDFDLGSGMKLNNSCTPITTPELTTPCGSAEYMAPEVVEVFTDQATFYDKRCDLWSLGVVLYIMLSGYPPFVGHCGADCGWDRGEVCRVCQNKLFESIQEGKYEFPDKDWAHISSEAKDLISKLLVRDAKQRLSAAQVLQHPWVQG

“5′TGGGGTGGGCGGGCGGGGGTGGGGGTGGT-3′ (DNA, backbone and methylation of C not given here; further chemistry not fully specified) [apMNKQ2]” was tested, and the Kd (MNK1a; ELONA, biotin-labeled aptamer 0 to 500 nM, GST-MNK1a) was 66.1 ± 20.2 nM, the “binding (ELONA)” value (MNK1a; apMNKQ2-Bio at 20 nM, GST-MNK1a 0.2 μg/well) was “binds significantly” and the “binding (ELONA)” value (MNK1aΔ77) was “not significant”. The Kd (MNK1b; ELONA, biotin-labeled aptamer 0 to 500 nM, GST-MNK1b) was 15.5 ± 2.36 nM, the “binding (ELONA)” value (MNK1b; apMNKQ2-Bio at 20 nM, GST-MNK1b 0.2 μg/well) was “binds significantly” and the “affinity for MNK1b relative to MNK1a” value (MNK1b; from ELONA KD values) was “four-fold higher”. For the same substance, the “binding (ELONA)” value (MNK1ΔCt) was “not significant”, the “invasion (transwell with Matrigel)” value (MDA-MB-231 cells) was “significant reduction of invasion” and the “invasion (transwell with Matrigel)” value (MDA-MB-468 cells) was “significant reduction of invasion”. The “phosphorylation of AKT” value (AKT) was “no effect”, the “phosphorylation of eIF4E” value (eIF4E) was “no effect” and the “phosphorylation of ribosomal protein S6 (dependent on mTOR activity)” value (ribosomal protein S6) was “also affects this phosphorylation”.
